melting point [°C] | SMILES
267 to 268 | COc1cc2c(cc1-c1cnccn1)-c1c(-c3cccs3)c3c(n1CC2)C(=O)N(C(C)(C)C)CCCOC3
115 to 116 | O=C(NCCCCC1CCSS1)NCCCCC1CCSS1 (centres undefined)
106 to 107 | CCCOc1ccccc1-c1ncc(C(=O)OCC)c(=O)[nH]1
267 to 269 | COc1ccc(-c2[nH]nc3c2C(=O)c2c(NC(N)=O)cccc2-3)cc1
218 to 220 | O=C(NC1CCN(CCc2[nH]c(=O)[nH]c2-c2ccc(F)cc2)CC1)c1ccccc1
192 | O=CCCc1cnc(-c2ccccc2)s1
116 to 118 | CCCc1c(OCCCCCCc2cccc(OCCCC(=O)O)c2CCC(=O)O)ccc2c1OCCC2=O
198 to 202 | Cn1c(C(F)(F)F)cc(=O)n(-c2ccc(Cl)cc2O)c1=O
128 to 129 | CCOc1cc(OCCCc2cn(-c3ccc(C(F)(F)F)cn3)nc2OC(C)C)ccc1CCC(=O)O
247 to 249 | Cc1nn(C)c(Cl)c1S(=O)(=O)N1CCC2(CC1)CSC1=C(O2)c2ccccc2C(=O)C1=O
167 to 168 | COc1c2occc2cc2c(C)cc(=O)oc12
142 to 145 | CC(=O)Oc1ccc(-n2nc(C(F)(F)F)cc2-c2ccc(S(C)(=O)=O)cc2)cc1
205 to 206 | COC(=O)Cn1c(=O)[nH]c2ccccc2c1=O
77 | Nc1cc([N+](=O)[O-])cc2c1CCCC2
97 to 100 | CCOC(=O)C1=C(COCc2nnnn2CC(N)=O)NC(C)=C(C(=O)OC)C1c1ccccc1Cl (centres undefined)
131 to 132 | O=C(O)CCc1cccc(OCc2ccccc2Cl)c1OCc1ccccc1Cl
112 to 115 | CC(C)CC1NC(C)(C)CNC1=O (centres undefined)
161 to 162 | CCOC(=O)C1=C(COCC=NO)NC(C)=C(C(=O)OC)C1c1ccccc1Cl (centres undefined)
180 to 182 | CN1CCN(C2=Nc3cc(Cl)ccc3Oc3cscc32)CC1
132 to 134 | CC(C)(C)OC(=O)C1CCCNN1C(=O)C(CCC(=O)O)N1C(=O)c2ccccc2C1=O (centres undefined)
219 | CCOc1ccc2c(c1)n(C1CCCCC1)c(=O)n2S(=O)(=O)c1ccc(C(=O)NC(C)(C)CC)cc1OC
139 to 143 | NC(=O)c1cc(Oc2ccc(C(F)(F)F)cc2Cl)ccc1[N+](=O)[O-]
143 | COc1ccc(C(=O)NC[C@@H]2CN3C(=O)C[C@H]3O2)cc1 (racemic)
128 | O=C(Nc1ccccc1)O[C@@H]1CN=C(c2ccccc2F)O[C@H]1c1ccccc1 (racemic)

melting point [°C] | SMILES
170 | CC(O)c1cccc(NC(=O)NCC(=O)N(c2ccccc2)C(C)C(=O)N2CCCc3ccccc32)c1 (mixture of isomers)
175 to 177 | Nc1ccc(-c2nc(C(=O)Nc3nccs3)c(-c3ccc(C(F)(F)F)cc3)[nH]2)cc1
203 to 204 | COc1cccc(Cc2nnc(NCCSCc3nc[nH]c3C)[nH]c2=O)c1
153 to 154 | CCOP(=O)(Cc1ccc(NC(=O)c2cc(=O)c3ccccc3o2)cc1)OCC
99 | Cc1c(CC(=O)NCCO)cc(-c2ccc(S(C)(=O)=O)cc2)n1-c1ccc(F)cc1
161 | CNC(=O)[C@@H]1C[C@@H](OCC2CC2)CN1S(=O)(=O)c1ccc(Cl)c(CBr)c1Cl
274 to 276 | O=CN1CC2CC1CN2c1cc2c(cc1F)c(=O)c(C(=O)O)cn2-c1ccc(F)cc1 (centres undefined)
116 to 118 | Cn1c(=O)ccc2cc(-c3cccnc3)ccc21
124 to 126 | CC(C)(C)OC(=O)C(N)c1ccc(C(=O)O)cc1[N+](=O)[O-] (centres undefined)
139 | NC[C@@H]1C(=O)N[C@H]1SC(c1ccccc1)(c1ccccc1)c1ccccc1 (relative stereo)
203 to 206 | O=C(O)c1cn(C2COC2)c2c(F)c(F)c(F)cc2c1=O
173 to 175 | CCOC(=O)C(=O)Nc1ccc2cccc([N+](=O)[O-])c2c1NC(=O)C(=O)OCC
164 | CCc1nc(C(F)(F)F)c(CN(C(=O)C2CCCc3c(O)cccc32)c2ccc(C(C)C)nc2)s1 (centres undefined)
147 to 148 | O=C(O)c1cc([N+](=O)[O-])ccc1Nc1ccc(CCCCCc2ccc(Cl)c(Cl)c2)cc1
116 to 117 | Clc1ccc(-c2nc(COc3ccc(CCCn4ccnc4)cc3)co2)cc1
133 to 135 | c1ccc2c(CCOc3cncc(N4CCNCC4)n3)c[nH]c2c1
149 to 150 | Cc1oc(-c2ccccc2)nc1COc1cc(COc2nn(C)cc2CC(=O)O)on1
176 to 180 | CC(C)Cn1c(=O)n(C)c(=O)c2c(C/C=C/CC(=O)O)n(Cc3cccc4ccccc34)cc21
248 to 262 | CC(C)Oc1cc(-c2[nH]c3cn[nH]c(=O)c3c2Cl)ccc1OC(F)F
140 to 142 | Cn1c(C(F)(F)F)cc(=O)[nH]c1=O
152 to 153 | CN(C)CCN1C(=O)C(NC(=O)c2ccc(Cl)cc2)C(C)(C)SC1=S (centres undefined)
102 to 104 | CC(=Cc1cc(O)c(O)c([N+](=O)[O-])c1)C(C)O (centres undefined)
220 | COc1cc2c(cc1OC)CN(CCCOc1ccc(NC(=O)c3cccc4c(=O)c5ccccc5[nH]c34)cc1)CC2
117 to 118 | COC1=C(OC)C(OC)C(C=CC(=O)O)(OC)C=C1C (centres undefined)

melting point [°C] | SMILES
203 to 205 | CCN(CCNC(=O)c1n[nH]cc1NC(=O)c1cccc(C)n1)c1cccc(C)c1
89 | CCC(Oc1ccc(C(C)(C)CC)cc1C(C)(C)CC)C(=O)O (centres undefined)
110 to 111 | COc1ccc(N)c(CS(=O)(=O)c2ccccc2)c1
100 to 104 | COCc1nn(C)c(O)c1C(=O)c1ccc(S(C)(=O)=O)c(COC)c1C
138 to 139 | N#CC(C#N)=CN(N=C(C#N)C#N)c1ccc(F)cc1
133 to 134 | Nc1cccc2c1ccn2S(=O)(=O)c1cccc2ccccc12
94 to 97 | O[C@H](COc1cccc2[nH]ccc12)CN1CCC(c2c[nH]c3ccc(F)cc23)CC1
110 to 111 | CC(C)(C)c1cc(NC(=O)Nc2cccc(Oc3nc4ccccc4s3)c2)[nH]n1
176 to 178 | COc1ccc(N2CCN(Cc3n[nH]c4c3Cc3ccccc3-4)CC2)cc1
> 230 | Nc1nc2c(c(=O)[nH]1)n(CC(=O)O)c(=O)n2C1OC(CO)C(O)C1O (centres undefined)
233 to 234 | CN1C(=O)SC(=Cc2ccc([N+](=O)[O-])cc2)C1=O
237 to 238 | Cc1ccc(-c2nn(-c3cccc([N+](=O)[O-])c3)c(N)c2C(N)=O)cc1
206 to 207 | COC(=O)c1cc(-c2ccc(C)c(F)c2)n[nH]c1=O
140 to 141 | CC(=O)NC(C)Cc1cc(C)c(C)cc1CC#N (centres undefined)
171 to 173 | Nc1cccc(Nc2cccc(N)n2)n1
83 to 86 | COCCNC(=S)n1nc(Oc2c(Cl)cc(C(F)(F)F)cc2Cl)cc1C
219 to 221 | O=C(O)c1ccc(OCC2COC(=O)N2c2ccc(Cl)cc2)cc1 (centres undefined)
216 to 218 | NC(=O)c1c(F)ccc(OCc2ccc3ccccc3n2)c1F
93 to 95 | Clc1ccc(COC(CNc2ccc(Cl)cc2Cl)Cn2ccnc2)cc1 (centres undefined)
239 to 241 | O=C1NC(=O)C2(C=Cc3c(Cl)sc(Cl)c32)N1 (centres undefined)
234 to 235 | CC(=O)Nc1ccc(S(=O)(=O)O)c(NCC(=O)O)c1
187 to 188 | CC(=O)c1c([N+](=O)[O-])[nH]c(-c2ccncc2)c1C
68 to 68.5 | CCOC(=O)NC1Cc2ccccc2C1
198 | CS(=O)(=O)C(=C1CN(C(c2ccccc2)c2ccccc2)C1)c1cccc(I)c1

melting point [°C] | SMILES
193 to 196 | CN1C2CCCC1CC(NC(=O)c1cccc3nc(-c4ccc(Cl)cc4)oc13)C2 (centres undefined)
247 to 248 | Cn1cc(S(C)(=O)=O)c(=O)c2ccc(C(C)(C)C)cc21
155 to 157 | COC(=O)c1cn2c(C)c(-c3ccccc3)sc2n1
192 to 194 | CCOc1cc(Cc2cnc(N)nc2N)cc(OCC)c1N
114 to 116 | CN(C1CC(C)(C)Oc2ccc(OCc3ccccc3)cc21)S(C)(=O)=O (centres undefined)
141 to 142 | COc1ccc(-c2nc(NS(=O)(=O)c3ccc(C(C)(C)C)cc3)c(Oc3ccccc3OC)c(OC[C@@H](O)CO)n2)cc1
68 to 70 | O=C1NC(=O)C(Cc2ccc(OCCN3c4ccccc4Sc4ccccc43)cc2)S1 (centres undefined)
175 to 176 | CCOC(=O)c1c(C)nsc1NC(=O)NC(C)C
125 to 130 | COCCc1nc2c(N)nc3ccccc3c2n1CC(C)(C)CN(C(N)=O)c1ccccc1
120 to 121 | C=CCC(N)(Cc1ccccc1)C(N)=O (centres undefined)
> 255 | COc1cc(NS(C)(=O)=O)ccc1C1=NC2=CCC(=O)NC2=N1
110 to 111 | COc1cc(C=CC(=O)c2ccccc2O)cc(OC)c1
63 to 65 | COCc1cc([N+](=O)[O-])c(Cl)cc1C(=O)Cl
156 to 158 | COc1ccc(N2CCOCC2)c2sc(C(=O)NCc3ccccc3)nc12
83 to 85 | CCCCC=C(c1ccccc1N1CCCCC1)C(C(N)=O)c1ccc(C(=O)OCC)cc1 (centres undefined)
85 to 90 | Cc1oc(-c2ccccc2)nc1CCOc1ccc(C[C@H](Nc2ccccc2C(=O)c2ccccc2)C(=O)O)cc1
254 to 255 | O=C(O)c1ccc(-c2nc(-c3ccccc3)ccc2Cl)cc1
212 to 213 | O=C(O)C1=Cc2cc(-c3ccc(Cl)cc3)ccc2OC1C(F)(F)F (centres undefined)
60 | N=C(CCOCC(COCCC(=N)NO)(COCCC(=N)NO)COCCC(=N)NO)NO (centres undefined)
70 to 71 | CC1CCC(C(C)C)C(OC2C=CC(=O)O2)C1 (centres undefined)
99 to 100 | CCNC(=O)Nc1ccccc1

SMILES | melting point [°C]
COc1ccc2c(c1)C1CCN(C)C(C1)N2C (centres undefined) | 72 to 73.5
NC(=O)C1(c2ccccc2)CCN(Cc2ccccc2)CC1 | 117 to 118
CN1CCC(O)(c2ccc(F)cc2F)C1 (centres undefined) | 117 to 119
CC(C)(C)c1cc(-n2nc3ccc(S(=O)(=O)c4ccccc4)cc3n2)c(O)c(C(C)(C)C)c1 | 170 to 172
Cc1cc(C2=CCN(CCCC(O)c3ccccc3)CC2)on1 (centres undefined) | 108 to 109
CCCC12CCC3C4CCC(=O)C=C4CCC3C1CCC2(C)O (centres undefined) | 134 to 136

Source: a melting point compilation (Tetko et al.; mined from patent text by program, amines drawn as free bases though some values may be those of a salt)
